The assay concerns the target T1, human recombinant COX2 (hCOX2) (UniProt P35354).
T1 sequence (P35354 1-604): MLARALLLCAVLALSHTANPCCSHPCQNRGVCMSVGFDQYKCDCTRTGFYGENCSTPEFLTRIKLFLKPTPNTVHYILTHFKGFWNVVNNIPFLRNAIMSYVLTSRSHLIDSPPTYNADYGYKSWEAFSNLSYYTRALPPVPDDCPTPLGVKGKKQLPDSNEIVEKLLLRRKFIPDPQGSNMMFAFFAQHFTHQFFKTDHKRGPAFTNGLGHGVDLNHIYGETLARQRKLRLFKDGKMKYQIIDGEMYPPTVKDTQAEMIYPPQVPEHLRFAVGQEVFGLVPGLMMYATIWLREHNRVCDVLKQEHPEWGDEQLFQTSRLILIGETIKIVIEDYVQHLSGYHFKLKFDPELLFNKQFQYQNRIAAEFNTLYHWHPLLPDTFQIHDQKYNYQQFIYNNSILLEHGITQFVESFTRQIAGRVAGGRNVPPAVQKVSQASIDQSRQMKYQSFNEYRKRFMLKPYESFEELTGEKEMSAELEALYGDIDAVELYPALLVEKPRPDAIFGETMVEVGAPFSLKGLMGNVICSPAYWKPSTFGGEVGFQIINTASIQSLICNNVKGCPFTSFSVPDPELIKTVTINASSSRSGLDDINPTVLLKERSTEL
Briefly: LCMS-based COX2 enzymatic inhibition assay (PGE2 quantification). The assay is classed as biochemical. The arrangement: COX2 2 minutes pge2/pge2d4 area ratio Avg; other: 2 minutes; readout pge2/pge2d4 area ratio; average; COX2 2 minutes pge2/pge2d4 area ratio Avg; LLE; average LLE; COX2 2 minutes pge2 area (counts) Avg; readout pge2 area (counts); other: 2 min; "ovine COX2 (oCOX2), human recombinant COX2 (hCOX2)". Particulars: 2 minutes; for COX2 2 minutes pge2/pge2d4 area ratio Avg. LLE / COX2 2 minutes pge2 area (counts) Avg. LLE: average LLE; for IC50: average. Summed up: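 Ovine COX-1 (0.1 μg) or human recombinant COX2 (0.2 μg) in 100 mM Tris.HCl pH 8.0 with hematin and epinephrine, preincubated with inhibitor 10 min at 37 °C. Reaction with 5 μM arachidonic acid stopped after 2 min with HCl; PGE2 quantified by LC-MS-MS. IC50 from 12 concentrations in triplicate.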

Where [1] appears, read: readout pge2/pge2d4 area ratio, read-out: COX2 2 minutes pge2/pge2d4 area ratio Avg. IC50.
[2] abbreviates: readout pge2 area (counts), read-out: COX2 2 minutes pge2 area (counts) Avg. IC50.

Where two headings read alike, the source gives them in different places.

For `COc1cc(S(C)(=O)=O)ccc1-c1cncc(NCc2cccs2)n1` [Compound 179], under “readout pge2/pge2d4 area ratio”, the “COX2 2 minutes pge2/pge2d4 area ratio Avg. LLE” value is recorded as 4.286. The IC50 runs as follows: under setting [1], 0.546 µM; under setting [2], 0.387 µM. The “COX2 2 minutes pge2 area (counts) Avg. LLE” value (“COX2 2 minutes pge2 area” for short) (readout pge2 area (counts)) came out at 4.322.
On the same counts, the results for `CS(=O)(=O)c1ccc(-c2cncc(NC3CCCCC3)n2)cc1` [Compound 180] are 3.95, 0.555 µM, 0.514 µM and 3.961.
As to `Cn1ccc(COc2cncc(-c3ccc(S(C)(=O)=O)cc3)n2)n1` [Compound 181], the “COX2 2 minutes pge2/pge2d4 area ratio Avg. LLE” value (readout pge2/pge2d4 area ratio) was found to be 5.19. The IC50 stood at 0.559 µM under setting [1] and 0.525 µM under setting [2]. For the same molecule, the “COX2 2 minutes pge2 area” value (readout pge2 area (counts)) was 5.2357.
In the case of `COc1ncc(NCc2ccncc2)nc1-c1ccc(S(C)(=O)=O)cc1` [Compound 182], the “COX2 2 minutes pge2/pge2d4 area ratio Avg. LLE” value (readout pge2/pge2d4 area ratio) is 5.042. Also, the IC50 runs as follows: under setting [1], 0.559 µM; under setting [2], 0.415 µM. Besides, for the setting “readout pge2 area (counts)”, the “COX2 2 minutes pge2 area” value was found to be 5.147.
On the same counts, the results for `COc1ncc(NCc2ccno2)nc1-c1ccc(S(C)(=O)=O)cc1` [Compound 183] are 5.678, 0.566 µM, 0.596 µM and 5.655.
For `CS(=O)(=O)c1ccc(-n2cnc3ccc(NCc4cccs4)nc32)cc1` [Compound 184], the IC50 is, setting by setting: under setting [1], 0.57 µM; under setting [2], 0.457 µM.
As for `CS(=O)(=O)c1ccc(-c2cccc(NCc3cc[nH]c3)n2)cc1` [Compound 185], for the setting “readout pge2/pge2d4 area ratio”, the “COX2 2 minutes pge2/pge2d4 area ratio Avg. LLE” value amounted to 3.623. The IC50 came out at 0.61 µM under setting [1] and 0.572 µM under setting [2]. Under “readout pge2 area (counts)”, the “COX2 2 minutes pge2 area” value turned out to be 3.623.
With `CS(=O)(=O)c1ccc(-n2ccc3ccc(/C(=N\O)c4cccs4)nc32)cc1` [Compound 187], the IC50 is 0.629 µM under setting [1] and 0.635 µM under setting [2].
Consider `Cn1ccc(CNc2cccc(-c3ccc(S(C)(=O)=O)cc3)n2)n1` [Compound 188], for which, under “readout pge2/pge2d4 area ratio”, the “COX2 2 minutes pge2/pge2d4 area ratio Avg. LLE” value came to 4.275. Besides, the IC50 under setting [1] came to 0.652 µM and the IC50 under setting [2] is 0.546 µM. Moreover, the “COX2 2 minutes pge2 area” value (readout pge2 area (counts)) was determined as 4.373.
On the same counts, the results for `COCc1ccc(-c2ccc(S(C)(=O)=O)cc2)nc1NCc1cccs1` [Compound 189] are 2.767, 0.656 µM, 0.839 µM and 2.661.
The matching figures for `CS(=O)(=O)c1ccc(-c2cccc(C(=O)C(=O)c3cccs3)n2)cc1` [Compound 190]: 3.528, 0.711 µM, 0.774 µM and 3.498.
With `CO/N=C(\c1ccc2ccn(-c3ccc(S(C)(=O)=O)cc3)c2n1)c1cccs1` [Compound 191], the IC50 worked out at 0.735 µM under setting [1] and 0.886 µM under setting [2].
As for `CS(=O)(=O)c1ccc(-c2cncc(NC(=O)c3cccs3)n2)cc1` [Compound 192], for the setting “readout pge2/pge2d4 area ratio”, the “COX2 2 minutes pge2/pge2d4 area ratio Avg. LLE” value is recorded as 4.414. For the same molecule, the IC50 under setting [1] came out at 0.751 µM and the IC50 under setting [2] was 0.602 µM. In addition, the “COX2 2 minutes pge2 area” value (readout pge2 area (counts)) is reported as 4.524.
The matching figures for `CS(=O)(=O)c1ccc(-c2cncc(SCc3ccno3)n2)cc1` [Compound 193]: 4.9351, 0.772 µM, 1.09 µM and 4.813.
Take `CS(=O)(=O)c1ccc(-c2cccc(Nc3ccccc3)n2)cc1` [Compound 194]: the “COX2 2 minutes pge2/pge2d4 area ratio Avg. LLE” value (readout pge2/pge2d4 area ratio) is recorded as 2.607. Further, the IC50 runs as follows: under setting [1], 0.883 µM; under setting [2], 1.04 µM. Further, under “readout pge2 area (counts)”, the “COX2 2 minutes pge2 area” value worked out at 2.538.
For the molecule `CS(=O)(=O)c1ccc(-n2ccc3ccc(/C(=N/O)c4cccs4)nc32)cc1` [Compound 195], the IC50 reads like this: under setting [1], 0.885 µM; under setting [2], 0.969 µM.

The values above are taken from patent US20220348590A1, “CYCLOOXYGENASE-2 INHIBITORS AND USES THEREOF” (The Board Institute, Inc., priority 2019, published 2022).
